Reference: patent US20260007600A1, “NUCLEIC ACID DRUG FOR TREATING HYPERURICEMIA-RELATED DISEASES, PREPARATION METHOD THEREFOR, AND USE THEREOF” (Rigerna Therapeutics (Beijing) Co., Ltd., priority 2022, published 2026)

Legend:
[1] = tested on: hyperuricemia mouse model; experiment: Therapeutic effect in hyperuricemia model mice (0.15% high-purine feed), Example 9; assay type: in vivo, C57BL/6 mice; settings: for serum uric acid during treatment: Allopurinol daily in drinking water
From the text: Female C57BL/6 mice aged 6 to 8 weeks were purchased from SPF (BEIJING) BIOTECHNOLOGY CO., LTD. The mice were randomly divided into 4 groups and subjected to different treatments, i.e., one group was fed normally, and the other three groups were constructed as models of hyperuricemia. For the model mice, the mice were fed with 0.15% high-purine feed starting from Day −14, that is, the hyperuricemia model was constructed by continuous high-purine diet. On Day 0, blood of all the mice was collected by orbital sampling, and serum was separated to detect uric acid levels. After confirming that the models of mice were successfully modeled, the mice were administrated with drug. The mice that were not subjected to the model construction were raised normally and administrated through tail vein injection with 200 μL of PBS (Control group, G1). The mice were subject to the model construction, and on 14 days after the model construction, the mice were administrated through tail vein injection with 200 μL of PBS (PBS group, G2). […] At different time points after the drug administration, blood of the mice was collected by orbital sampling, and the serum was separated and analyzed for uric acid and other biochemical indices. The changes in weight of the mice were recorded throughout the model construction and drug administration. […] The liver tissue was taken for metabolomics analysis, and the heart, liver, spleen, lung, kidney, and other tissues and organs were fixed and analyzed for pathological changes by H&E staining.
The same method as step 1 of the present example was used to construct the hyperuricemia mouse model, and the therapeutic effect of the novel lipid nanoparticle Uox1@iLAND in the hyperuricemia mouse model was evaluated. […] At different time points after the drug administration, blood of the mice was collected by orbital sampling, and the serum was separated and the uric acid level was measured.

[2] = tested on: hyperuricemia mouse model; experiment: Therapeutic effect in hyperuricemia model mice (uric acid inhibitors injected subcutaneously), Example 8; assay type: in vivo, C57BL/6 mice; settings: mUox@iLAND 200 μL tail vein once; Allopurinol daily in drinking water; vs PBS group; FIG. 15
From the text: Female C57BL/6 mice aged 6 to 8 weeks were purchased from SPF (BEIJING) BIOTECHNOLOGY CO., LTD. The mice were randomly divided into 4 groups and subjected to different treatments, i.e., one group was fed normally, and the other three groups were constructed as models of hyperuricemia. For model mice, uric acid inhibitors were subcutaneously injected on Day −14. On Day 0, blood of all the mice was collected by orbital sampling, and serum was separated to detect uric acid levels. After confirming that the models of mice were successfully modeled, the mice were administrated with drug. The mice that were not subjected to the model construction were raised normally and administrated through tail vein injection with 200 μL of PBS (Control group, G1). The mice were subject to the model construction, and on 14 days after the model construction, the mice were administrated through tail vein injection with 200 μL of PBS (PBS group, G2). […] At different time points after the drug administration, blood of the mice was collected by orbital sampling, and the serum was separated and analyzed for uric acid and other biochemical indices. The changes in weight of the mice were recorded throughout the model construction and drug administration.

Oc1ncnc2[nH]ncc12 [Allopurinol]
serum uric acid level reached ([1]; step 1, Allopurinol daily in drinking water, FIG. 19): around 0 μM | serum uric acid during treatment ([1]; step 1, mUox@iLAND 200 μL tail vein once, FIG. 19): lowered the uric acid level below the normal level | serum uric acid during treatment ([1]; step 2, Uox1@iLAND 200 μL tail vein once, FIG. 24): lower the uric acid level to a level same as the normal level or a level lower than the normal level | serum uric acid during treatment [2]: able to maintain a certain level of uric acid
